PubChem BioAssay (NCI)
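Results reflect a 48-hour exposure of cells in 96-well plates to compound at five concentrations. Here, GI50 denotes the concentration required for 50% inhibition of growth. TGI: concentration producing complete growth inhibition.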

What was measured:
Assay in all cases: NCI tumour cell line growth inhibition, 48 h
A549 NSCLC = test system: A549 NSCLC
HT29 colon = test system: HT29 colon
K-562 leukemia = test system: K-562 leukemia
KM12 colon = test system: KM12 colon
NCI-H226 lung = test system: NCI-H226 lung
OVCAR-3 ovarian = test system: OVCAR-3 ovarian
SF-268 CNS = test system: SF-268 CNS
SK-MEL-5 melanoma = test system: SK-MEL-5 melanoma
U251 CNS = test system: U251 CNS
UACC-62 melanoma = test system: UACC-62 melanoma

CCCCCCc1cc2cc(-c3csc(/C=C/c4ccccc4)n3)c(=O)oc2cc1O
GI50 (A549 NSCLC): 4.27 µM | TGI (A549 NSCLC): 19 µM | GI50 (HT29 colon): > 100 µM | TGI (HT29 colon): > 100 µM | GI50 (K-562 leukemia): 6.13 µM | TGI (K-562 leukemia): 80.3 µM | GI50 (KM12 colon): 4.42 µM | TGI (KM12 colon): 16.4 µM | GI50 (NCI-H226 lung): 15.2 µM | TGI (NCI-H226 lung): 33.4 µM | GI50 (OVCAR-3 ovarian): 3.52 µM | TGI (OVCAR-3 ovarian): 9.98 µM | GI50 (SF-268 CNS): 11.6 µM | TGI (SF-268 CNS): 28.9 µM | GI50 (SK-MEL-5 melanoma): 19.3 µM | TGI (SK-MEL-5 melanoma): 49.3 µM | GI50 (U251 CNS): 2.91 µM | TGI (U251 CNS): 10.5 µM | GI50 (UACC-62 melanoma): 13.9 µM | TGI (UACC-62 melanoma): 28.1 µM

O=C(O)c1ccc(Oc2nc3ccccc3s2)cc1
TGI (A549 NSCLC): > 100 µM | TGI (HT29 colon): > 100 µM | TGI (K-562 leukemia): > 100 µM | TGI (KM12 colon): > 100 µM | TGI (NCI-H226 lung): > 100 µM | TGI (OVCAR-3 ovarian): > 100 µM | TGI (SF-268 CNS): > 100 µM | TGI (SK-MEL-5 melanoma): > 100 µM | TGI (U251 CNS): > 100 µM | TGI (UACC-62 melanoma): > 100 µM

COc1ccc(C2CC(c3ccc4ccccc4c3)=NN2c2nc(O)c(C3=c4cc(OC)ccc4=NC3=O)s2)cc1 (stereo not given)
GI50 (A549 NSCLC): 0.0612 µM | TGI (A549 NSCLC): 0.223 µM | GI50 (HT29 colon): 0.0458 µM | TGI (HT29 colon): > 100 µM | GI50 (K-562 leukemia): 0.0662 µM | TGI (K-562 leukemia): > 32.3 µM | GI50 (KM12 colon): 0.0856 µM | TGI (KM12 colon): 0.286 µM | GI50 (NCI-H226 lung): 0.0581 µM | TGI (NCI-H226 lung): 0.248 µM | GI50 (OVCAR-3 ovarian): 0.0569 µM | TGI (OVCAR-3 ovarian): 0.17 µM | GI50 (SF-268 CNS): 0.0615 µM | TGI (SF-268 CNS): 0.241 µM | GI50 (SK-MEL-5 melanoma): 0.0899 µM | TGI (SK-MEL-5 melanoma): 0.243 µM | GI50 (U251 CNS): 0.0323 µM | TGI (U251 CNS): 0.0975 µM | GI50 (UACC-62 melanoma): 0.121 µM | TGI (UACC-62 melanoma): 0.368 µM

NS(=O)(=O)c1ccc(N=C2C(=O)Nc3ccccc32)cc1
TGI (A549 NSCLC): > 100 µM | TGI (HT29 colon): > 100 µM | TGI (K-562 leukemia): > 100 µM | TGI (KM12 colon): > 100 µM | TGI (NCI-H226 lung): > 100 µM | TGI (OVCAR-3 ovarian): > 100 µM | TGI (SF-268 CNS): > 100 µM | TGI (SK-MEL-5 melanoma): > 100 µM | TGI (U251 CNS): > 100 µM | TGI (UACC-62 melanoma): > 100 µM

COC1=CC(=O)OC(/C=C(C)/C=C/C2=C(C)CCCC2(C)C)C1 (stereo not given)
TGI (A549 NSCLC): > 100 µM | TGI (HT29 colon): > 100 µM | TGI (K-562 leukemia): > 100 µM | TGI (KM12 colon): > 100 µM | TGI (NCI-H226 lung): > 100 µM | TGI (OVCAR-3 ovarian): > 100 µM | TGI (SF-268 CNS): > 100 µM | TGI (SK-MEL-5 melanoma): > 100 µM | TGI (U251 CNS): > 100 µM | TGI (UACC-62 melanoma): > 100 µM
